Paper doi:10.1101/2025.09.24.678246 (bioRxiv, 2025)
Converted amounts (≈) assume the structure as drawn. “And” between values parts separate entries of the source, which are not always exact repeats. Identical values can stand only once. “Also recorded” adds a separate entry of the source. Like-named read-outs stand apart in the source and are kept apart here.

Experiments:
[1] = system: WT H37Rv; type: cell-based, Mycobacterium tuberculosis
[2] = system: C48-resistant Mtb H37Rv mutants; type: cell-based, Mycobacterium tuberculosis; conditions: for susceptibility of C48-resistant mutants: compared with parent strain
[3] = system: H37Rv ΔbioA TetON-1 (BioA-OE); type: cell-based; conditions: for normalized growth (no drug = 100): Fig. 2C, BioA-OE
[4] = system: drug sensitive and resistant Mtb isolates; assay: microbe, parasite or virus in culture; type: cell-based; conditions: Mycobacterium tuberculosis
[5] = system: H37Rv ΔbioA TetON-5 (BioA-UE); type: cell-based; conditions: Fig. 2C
[6] = M. tb CRC clinical strain K5072429, DS

## O=C1CCc2cc(N3CCN(C(=O)c4ccc(F)c(Br)c4)CC3)ncc21 [C48]
[1]
  frequency of spontaneously resistant mutants: approximately 3×10^−8
[2]
  MIC shift compared to WT: Large; also recorded: Medium
  increase in MIC of 30 resistant mutants compared to WT H37Rv: approximately 300 fold
  resistance level of bioA mutant Met91Ile: high-level resistance
  resistance level of bioA mutants Met91Val, Met91Thr, Cys168Tyr: medium-level resistance
[3]; ATc-inducible BioA overexpression
  potency with increasing expression of BioA: decreases monotonically
[3]; [C48] 0.02 µM
  normalized growth (no drug = 100): 99.1764 and 99.8577 and 98.7033
[3]; [C48] 0.0434 µM
  normalized growth (no drug = 100): 95.2869 and 101.385 and 96.6682
[3]; [C48] 0.0941 µM
  normalized growth (no drug = 100): 94.175 and 96.4099 and 95.7333
[3]; [C48] 0.204 µM
  normalized growth (no drug = 100): 92.9284 and 86.8526 and 87.9532
[3]; [C48] 0.443 µM
  normalized growth (no drug = 100): 34.2705 and 25.7913 and 36.1572
[3]; [C48] 0.96 µM
  normalized growth (no drug = 100): 3.4759 and 3.24 and 3.555
[3]; [C48] 4.52 µM
  normalized growth (no drug = 100): 1.679 and 2.083 and 1.432
[3]; [C48] 21.3 µM
  normalized growth (no drug = 100): 2.409 and 2.139 and 2.1956
[3]; [C48] 46.1 µM
  normalized growth (no drug = 100): 1.96 and 2.297 and 2.072
[3]; [C48] 100 µM
  normalized growth (no drug = 100): 1.477 and 2.083 and 1.862
[4]; [6]
  MIC: < 0.024 µM
[4]; M. tb Erdman, DS
  MIC: 0.024 µM (≈ 0.01 µg/mL)
[4]; M. tb HN878, DS
  MIC: 0.0156 µM (≈ 0.00652 µg/mL)
[4]; M. tb K03b00DS, DS
  MIC: 0.047 µM (≈ 0.0197 µg/mL)
[4]; M. tb K04b00DS, DS
  MIC: 0.023 µM (≈ 0.00962 µg/mL)
[4]; M. tb K05b00DS, DS
  MIC: 0.0156 µM (≈ 0.00652 µg/mL)
[4]; M. tb K07b00DS, DS
  MIC: 0.023 µM (≈ 0.00962 µg/mL)
[4]; M. tb K08b00DS, DS
  MIC: < 0.024 µM
[4]; M. tb K09b00DS, DS
  MIC: 0.023 µM (≈ 0.00962 µg/mL)
[4]; M. tb K10b00DS, DS
  MIC: < 0.024 µM
[4]; M. tb K11b00DS, DS
  MIC: 0.0625 µM (≈ 0.0261 µg/mL)
[4]; M. tb K12b00DS, DS
  MIC: 0.023 µM (≈ 0.00962 µg/mL)
[4]; M. tb K13b00DS, DS
  MIC: 0.023 µM (≈ 0.00962 µg/mL)
[4]; M. tb K14b00DS, DS
  MIC: 0.0156 µM (≈ 0.00652 µg/mL)
[4]; M. tb K15b00DS, DS
  MIC: < 0.024 µM
[4]; M. tb K16b00DS, DS
  MIC: < 0.024 µM
[4]; M. tb K17b00DS, DS
  MIC: < 0.024 µM
[4]; M. tb K35b00DS, DS
  MIC: < 0.024 µM
[4]; M. tb NIH1B314, DR
  MIC: 0.0313 µM (≈ 0.0131 µg/mL)
[4]; M. tb NIH_G1DS, DS
  MIC: < 0.024 µM
[4]; M. tb NIH_G9R, DR
  MIC: 0.0156 µM (≈ 0.00652 µg/mL)
[4]; M. tb NIH_G10R, DR
  MIC: 0.0313 µM (≈ 0.0131 µg/mL)
[4]; M. tb NIH_G11R, DR
  MIC: 0.0156 µM (≈ 0.00652 µg/mL)
[4]; M. tb NIH_G12, DS
  MIC: < 0.024 µM
[4]; M. tb NIH_G16R, DR
  MIC: < 0.024 µM
[4]; M. tb NIH_G17R, DR
  MIC: < 0.024 µM
[4]; M. tb NIH_G22R, DR
  MIC: < 0.024 µM
[4]; M. tb NIH_GA36, DS
  MIC: < 0.024 µM
[4]; M. tb NIH_SA3, DS
  MIC: < 0.024 µM
[4]; M. tb NIH_SA23, DS
  MIC: < 0.024 µM
[4]; M. tb NIH_SA27, DS
  MIC: < 0.024 µM
[4]; M. tb NIH_SA39, DS
  MIC: < 0.024 µM
[4]; M. tb NIH_SA43, DS
  MIC: < 0.024 µM
[4]; M. tb NIH_SA125, DS
  MIC: < 0.024 µM
[5]; [C48] 0.02 µM
  normalized growth (no drug = 100): 85.8582 and 52.7583 and 51.6425
[5]; [C48] 0.0434 µM
  normalized growth (no drug = 100): 81.0305 and 46.7008 and 49.5132
[5]; [C48] 0.443 µM
  normalized growth (no drug = 100): 0.2448 and 0.3701 and 0.3017
[5]; [C48] 4.52 µM
  normalized growth (no drug = 100): 0.6433 and 0.5522 and 0.8369
[5]; [C48] 21.3 µM
  normalized growth (no drug = 100): 0.723 and 0.8369 and 1.008
[5]; [C48] 46.1 µM
  normalized growth (no drug = 100): 1.133 and 0.9394 and 1.076
[5]; [C48] 100 µM
  normalized growth (no drug = 100): 0.9037 and 0.9849 and 0.9735

## NNC(=O)c1ccncc1 [INH, isoniazid, reference compound]
[2]
  susceptibility of C48-resistant mutants: retained susceptibility

## CC(=O)NC[C@H]1CN(c2ccc(N3CCOCC3)c(F)c2)C(=O)O1 [Linezolid, reference compound]
[4]; M. tb CDC1551, DS
  MIC: 1.2 µM (≈ 0.405 µg/mL)
[4]; [6]
  MIC: 1.2 µM (≈ 0.405 µg/mL)
[4]; M. tb Erdman, DS
  MIC: 1.6 µM (≈ 0.54 µg/mL)
[4]; M. tb K03b00DS, DS
  MIC: 2.3 µM (≈ 0.776 µg/mL)
[4]; M. tb K04b00DS, DS
  MIC: 1.2 µM (≈ 0.405 µg/mL)
[4]; M. tb K07b00DS, DS
  MIC: 2.3 µM (≈ 0.776 µg/mL)
[4]; M. tb K09b00DS, DS
  MIC: 1.2 µM (≈ 0.405 µg/mL)
[4]; M. tb K13b00DS, DS
  MIC: 1.2 µM (≈ 0.405 µg/mL)
[4]; M. tb K14b00DS, DS
  MIC: 1.2 µM (≈ 0.405 µg/mL)
[4]; M. tb K35b00DS, DS
  MIC: 1.2 µM (≈ 0.405 µg/mL)
[4]; M. tb NIH_G1DS, DS
  MIC: 2.3 µM (≈ 0.776 µg/mL)
[4]; M. tb NIH_G9R, DR
  MIC: 2.3 µM (≈ 0.776 µg/mL)
[4]; M. tb NIH_G11R, DR
  MIC: 2.3 µM (≈ 0.776 µg/mL)
[4]; M. tb NIH_G12, DS
  MIC: 2.3 µM (≈ 0.776 µg/mL)
[4]; M. tb NIH_G16R, DR
  MIC: 3.13 µM (≈ 1.06 µg/mL)
[4]; M. tb NIH_G17R, DR
  MIC: 3.13 µM (≈ 1.06 µg/mL)
[4]; M. tb NIH_G22R, DR
  MIC: 3.13 µM (≈ 1.06 µg/mL)
[4]; M. tb NIH_GA36, DS
  MIC: 1.6 µM (≈ 0.54 µg/mL)

## CO[C@H]1/C=C/O[C@@]2(C)Oc3c(C)c(O)c4c(O)c(c(/C=N/N5CCN(C)CC5)c(O)c4c3C2=O)NC(=O)/C(C)=C\C=C\[C@H](C)[C@H](O)[C@@H](C)[C@@H](O)[C@@H](C)[C@H](OC(C)=O)[C@@H]1C [Rifampicin, rifampicin, reference compound]
[2]
  susceptibility of C48-resistant mutants: retained susceptibility
